Results reported in US7005258B1, “Cdc25 genes, encoded products and uses thereof” (The National Institutes of Health, priority 1991, dated 2006).

Biological target: T1, GST-cdc25A phosphatase (Homo sapiens, UniProt P30304)
T1 construct: made in house; host or cells: E. coli BL21(DE3)
T1 sequence (P30304 1-524): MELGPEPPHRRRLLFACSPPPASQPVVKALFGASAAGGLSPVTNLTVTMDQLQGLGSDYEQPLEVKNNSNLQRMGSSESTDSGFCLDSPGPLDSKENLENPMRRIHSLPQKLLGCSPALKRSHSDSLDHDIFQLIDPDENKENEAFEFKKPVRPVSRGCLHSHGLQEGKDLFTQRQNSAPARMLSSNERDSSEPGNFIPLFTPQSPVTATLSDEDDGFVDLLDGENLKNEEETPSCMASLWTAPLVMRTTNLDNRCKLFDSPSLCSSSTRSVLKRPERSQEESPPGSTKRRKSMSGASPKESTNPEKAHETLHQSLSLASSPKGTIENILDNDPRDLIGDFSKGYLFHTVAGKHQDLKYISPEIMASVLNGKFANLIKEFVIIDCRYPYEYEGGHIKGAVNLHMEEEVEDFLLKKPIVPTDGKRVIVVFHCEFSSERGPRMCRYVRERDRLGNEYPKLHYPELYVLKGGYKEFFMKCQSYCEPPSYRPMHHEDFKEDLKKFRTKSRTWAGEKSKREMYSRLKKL
Experiment: GST-cdc25A phosphatase activity towards p-nitrophenylphosphate (microtitration plate assay)
Format: biochemical
Procedure: One ml assay: 100 μl of GST-cdc25A protein (diluted to an activity of ∂ OD 410 nm=0.3/10 min) were mixed with 100 μl […] (in Tris buffer A) and 700 μl of Tris buffer A. The assay was initiated by addition of 100 μl 500 mM p-NPP (in Tris buffer A). After 10 min incubation at 37° C., the assay was terminated by addition of 40 μl 5 N NaOH and transfer of the tubes to 4° C. Absorbance at 410 nm was then measured and blank values (no GST-cdc25A protein but 10 min incubation) were subtracted.
This assay was then scaled down to 200 μl and conducted semi-automatically in 96-wells microtitration plates, as described in detail below. Each well was filled with 20 μl GST-cdc25A phosphatase, 140 μl Tris buffer A, 20 μl 100 mM DTT (in Tris buffer A); after 15 min equilibration at 37° C., reaction was initiated by addition of 20 μl 500 mM p-NPP (in Tris buffer A). After 60 min incubation absorbance at 405 nm was monitored in a microplate reader; blank values (no GST-cdc25A added) were subtracted.
Microtitration plate assay: 20 μl of GST-cdc25A protein (diluted to an activity of a ∂ OD 405 nm=0.2–0.3/60 min) were mixed with 20 μl 100 mM DTT (in Tris buffer A) and 140 μl of Tris buffer A, in 96-wells microtitration plates (Corning). The plates were preincubated at 37° C. for 15 min in a Denley Wellwarm 1 microplate incubator. The assays were initiated by addition of 20 μl of 500 mM p-NPP (in Tris buffer A). After 60 min incubation at 37° C. absorbance at 405 nm was measured in a bioRad microplate reader. Blank values (no CST-cdc25A protein added) were automatically subtracted.
In a series of experiments various antimitotic compounds currently used in cancer therapy were tested as potential inhibitors of the phosphatase (the Table). Most of them are reported to act as DNA damaging agents, as DNA intercalators, as topoisomerase 2 inhibitors or as compounds interfering with spindle microtubles. […] As a positive control vanadate, a reported inhibitor of tyrosine phosphatases was also tested (Gordon, J. A., 1Methods in Enzymology pp. 447–482 (1991)).

**Q.** With `[Na+].[Na+].[Na+].[O]=[V]([O-])([O-])[O-]` [vanadate, sodium orthovanadate] as the molecule, how does the “inhibition of GST-cdc25A phosphatase” value (at concentrations above 500 μM) read?
**A.** Its value is “totally inhibits”.

**Q.** And the “inhibition of cdc25 / GST-cdc25A phosphatase (summary statement)” value (concentration not given)?
**A.** The value was “totally inhibit”.

**Q.** What about the IC50 (p-NPP substrate, FIG. 14, read-out: I50, inhibition of GST-cdc25A phosphatase) of the same molecule?
**A.** Its IC50 is 20 µM.
